Values of other authors in paper PMC9326486, “The Therapeutic Potential of Targeting NIK in B Cell Malignancies” (Frontiers in Immunology, 2022).
Read-outs that look alike come from different tables or passages of the source.

Assays:
NIK = tested on: NIK; set-up: method as in PMID 29940120; details: Table 2, inhibitors applied in vivo; WT mice; ref [85]
SW1990 cell line = tested on: SW1990 cell line; set-up: method as in PMID 31116887; details: Pancreatic cancer, ref [76]
[1] = set-up: method as in PMID 24980832; details: prevented further in vivo studies; ref [71]
[2] = tested on: non-canonical NF-κB signaling; set-up: method as in PMID 24980832; details: ref [71]
[3] = tested on: L363, KMS11 and JMW1 cell lines Z138 and MAVER-1 cell lines U-2 OS cell line; set-up: method as in earlier work; details: Multiple myeloma (L363, KMS11, JMW1), mantle cell lymphoma (Z138, MAVER-1), osteosarcoma (U-2 OS) cell lines; ref [71] [72] [73]
[4] = tested on: p52 nuclear translocation; details: in vitro treatment, MCL and context of inflammation; ref [72], [73]
HEK293 cell line = tested on: HEK293 cell line; set-up: method as in PMID 28005357; details: ref [74]
[5] = tested on: intrahepatic cholangiocarcinoma xenografts; set-up: method as in PMID 34995376; details: ref [84]
WT mice = tested on: WT mice; set-up: method as in PMID 29330524; details: ref [83]
RelA activity = tested on: RelA activity; set-up: method as in PMID 29330524; details: selectivity for non-canonical NF-κB signaling; ref [83]
NZB/W F1 lupus mice = tested on: NZB/W F1 lupus mice; set-up: method as in PMID 29330524; details: systemic lupus erythematosus mouse model; ref [83]
HT-29 cell line = tested on: HT-29 cell line; set-up: method as in PMID 23374866; details: Colorectal adenocarcinoma, ref [70]
WT mice on ethanol diet = tested on: WT mice on ethanol diet; set-up: method as in PMID 32206109; details: alcoholic liver disease, ref [82]
p100-to-p52 processing = tested on: p100-to-p52 processing; set-up: method as in PMID 27871061; details: ref [80]
mouse stem cells = tested on: mouse stem cells; set-up: method as in doi:10.1101/2021.08.26.457753; details: in vitro, ref [86]
[6] = set-up: method as in PMID 27871061, PMID 32730745; details: ref [80], [81]
[7] = tested on: liver-specific NIK overexpression mouse model; set-up: method as in PMID 27871061; details: intravenous administration, ref [80]
primary CLL cells = tested on: primary CLL cells; set-up: method as in PMID 33495554; details: ref [77]
[8] = tested on: Chronic lymphocytic leukemia Primary cells; set-up: method as in PMID 33495554; details: ref [77]
CLL cells = tested on: CLL cells; set-up: method as in PMID 33495554; details: ref [77]
NF-κB gene reporter = tested on: NF-κB gene reporter; set-up: method as in PMID 30108985; details: ref [75]
EJM cell line = tested on: EJM cell line; set-up: method as in PMID 30108985; details: Multiple myeloma, ref [75]
[9] = higher concentrations (above 0.25µM)

SMILES: O=C(NC1=CC2OC(c3cccc(NC(=O)c4ccccc4)c3)=NC2C=C1)c1ccccc1 (centres unmarked) [N-(3-(6-benzamido-3a,7a-dihydrobenzo[d]oxazol-2-yl)-phenyl)benzamide]
- IC50 (SW1990 cell line): 42000 to 55800 nM

SMILES: Nc1ncc(Cl)c(N2CCc3ccc(C#CC4(O)CCCC4)cc32)n1 [Amgen16]
- pharmacokinetic properties [1]: poor
- effect on non-canonical NF-κB signaling ([2]; MM cell lines with mutations activating non-canonical NF-κB signaling independent of NIK): not affected
- effect on non-canonical NF-κB signaling ([2]; NIK-dependent MM cell lines): inhibition of non-canonical NF-κB signaling
- IC50 [3]: 417 to 2520 nM
- p52 nuclear translocation [4]: Inhibition of p52 nuclear translocation

SMILES: Cc1cc([C@](C)(O)C#Cc2cc3c(cc2F)OCCn2cc(C(N)=O)nc2-3)no1 [Compound 10]
- IC50 (HEK293 cell line): 123 to 189 nM

SMILES: COc1cc(C(N)=O)nc(-c2cccc(C#C[C@]3(O)CCN(C)C3=O)c2)c1 [NIK SMI1]
- tolerance (weight loss, blood test results) ([5]; mouse intrahepatic cholangiocarcinoma xenografts): good tolerance
- IC50 (primary B cells; Table 2, inhibitors applied in vivo, ref [83] [84]): 109 to 269 nM
- in vitro IC50 value (primary B cells; primary B cells, ref [83]): nanomolar range
- B cell survival (WT mice; WT mice, dose-dependent): reduction of marginal zone and follicular B cells
- serum IgA levels (WT mice; WT mice): reduced
- RelA activity (RelA activity): not affected
- germinal center B cell and plasma cell differentiation (NZB/W F1 lupus mice): inhibited
- mortality (NZB/W F1 lupus mice): significantly reduced

SMILES: Cc1nc2ccc(Cl)cn2c1-c1ccnc(N)n1 [Imidazopyridinyl pyrimidinamine 1]
- IC50 (HT-29 cell line): 16000 nM

SMILES: CC(O)(C#Cc1ccc2c(c1)N(c1nc(N)ncc1Cl)CC2)c1nccs1 (centres unmarked) [B022]
- alcoholic steatosis (WT mice on ethanol diet): alleviated alcoholic steatosis
- p100-to-p52 processing (p100-to-p52 processing): inhibition
- adipogenesis (mouse stem cells): prevented adipogenesis
- cytoplasmic RelA phosphorylation levels (mouse stem cells): reduce
- non-canonical NF-κB signaling (mouse stem cells): inhibited
- in vivo pharmacokinetic properties [6]: bad
- death as a result of liver inflammation and injury [7]: completely abrogated death

SMILES: CC(C)(O)C#Cc1ccc2c(c1)N(c1ccnc(N)n1)CC2 [CW15337]
- cell viability (primary CLL cells; concentrations up to 0.25µM): without an effect
- canonical NF-κB signaling (primary CLL cells; [9]): partial inhibition
- non-canonical NF-κB signaling (primary CLL cells; [9]): full blockade
- concentrations resulting in specific non-canonical NF-κB inhibition (primary CLL cells): up to 0.25 µM
- IC50 [8]: 500 to 1000 nM
- CD40-mediated drug resistance (CLL cells): abrogated

SMILES: CC(=O)n1nc(C)c(-c2ccc(Cl)c(Cl)c2)c1N [Aminopyrazole 3a]
- NF-κB gene reporter assay readout (NF-κB gene reporter; NIK-dependent MM cell line): efficacy
- NF-κB gene reporter assay readout (NF-κB gene reporter; two NIK-independent MM cell lines): no significant inhibition
- IC50 (EJM cell line): 7100 to 9700 nM
